Our source for the EC50 values is patent US9617283B2, “Bicyclic heterocycle compounds and their uses in therapy” (ASTEX THERAPEUTICS LIMITED, priority 2012, dated 2017).

The assay relates to EVSA-T (human breast carcinoma). The assay is described as follows: Anti-proliferative activity, Alamar Blue assay, EVSA-T. It is filed as cell-based. Background: Alamar Blue is a resazurin reagent that responds to reducing activity.
The mark [1] stands for this setting: Homo sapiens, EVSA-T, 72 h, EVSA-T cell line, 72 hours, Alamar Blue, read-out: EVSA-T prolif.
Where [2] appears, read: Homo sapiens, EVSA-T, read-out: EC50 in EVSA-T cell line assays.
Where [3] appears, read: EVSA-T cell line, 72 hours, Alamar Blue, dihydrochloride, read-out: EVSA-T prolif.
Setting [4] is: Homo sapiens, EVSA-T cell line, 72 hours, Alamar Blue, read-out: EVSA-T prolif.

Where a name gives a salt, the structure may show the parent alone. Read-outs that look alike come from different tables or passages of the source.

Take `CCC1CC(=O)N(C[C@H]2CN[C@H](C)CN2CC(=O)N2CC(C)(C)c3ncc(Cc4ccc(F)cc4)cc32)C1` (single isomer, unassigned) [Example 82, (4R or 4S)-4-Ethyl-1-{[(2R,5R)-1-(2-{6-[(4-fluorophenyl)methyl]-3,3-dimethyl-1H,2H,3H-pyrrolo[3,2-b]pyridin-1-yl}-2-oxoethyl)-5-methylpiperazin-2-yl]methyl}pyrrolidin-2-one dihydrochloride]: the EC50 by setting is: under setting [1], 1.5 nM; under setting [2], less than 1000 nM.

`CCC1CC(=O)N(C[C@H]2CN[C@H](C)CN2CC(=O)N2CC(C)(C)c3cnc(Cc4ccc(F)cc4F)cc32)C1` (single isomer, unassigned) [Example 83, (4R or 4S)-1-{[(2R,5R)-1-(2-{6-[(2,4-Difluorophenyl)methyl]-3,3-dimethyl-1H,2H,3H-pyrrolo[3,2-c]pyridin-1-yl}-2-oxoethyl)-5-methylpiperazin-2-yl]methyl}-4-ethylpyrrolidin-2-one dihydrochloride]: the EC50 under setting [1] is 1.1 nM and the EC50 under setting [2] is less than 1000 nM.

For `CCC1CC(=O)N(C[C@H]2CN[C@H](C)CN2CC(=O)N2CC(C)(C)c3ncc(Cc4ccc(F)cc4)cc32)C1` (single isomer, unassigned) [Example 86, (4R or 4S)-4-Ethyl-1-{[(2R,5R)-1-(2-{6-[(4-fluorophenyl)methyl]-3,3-dimethyl-1H,2H,3H-pyrrolo[3,2-b]pyridin-1-yl}-2-oxoethyl)-5-methylpiperazin-2-yl]methyl}pyrrolidin-2-one dihydrochloride], the EC50 under setting [3] came to 1.7 nM.

Take `CCC1CC(=O)N(C[C@H]2CN[C@H](C)CN2CC(=O)N2CC(C)(C)c3cnc(Cc4ccc(F)cc4F)cc32)C1` (single isomer, unassigned) [Example 87, (4R or 4S)-1-{[(2R,5R)-1-(2-{6-[(2,4-Difluorophenyl)methyl]-3,3-dimethyl-1H,2H,3H-pyrrolo[3,2-c]pyridin-1-yl}-2-oxoethyl)-5-methylpiperazin-2-yl]methyl}-4-ethylpyrrolidin-2-one dihydrochloride]: the EC50 under setting [3] was 1.2 nM.

Take `CCCC(F)(F)c1cc2c(cn1)C(C)(C)CN2C(=O)CN1C[C@@H](C)NC[C@@H]1CN1CC(CC)OCC1=O` (single isomer, unassigned) [Example 88, 4-{[(2R,5R)-1-{2-[6-(1,1-Difluorobutyl)-3,3-dimethyl-1H,2H,3H-pyrrolo[3,2-c]pyridin-1-yl]-2-oxoethyl}-5-methylpiperazin-2-yl]methyl}-(R or S)-6-ethylmorpholin-3-one dihydrochloride]: the EC50 under setting [3] amounted to 14 nM and the EC50 under setting [2] is less than 1000 nM.

With `CCCC(F)(F)c1cc2c(cn1)C(C)(C)CN2C(=O)CN1C[C@@H](C)NC[C@@H]1CN1CC(CC)OCC1=O` (single isomer, unassigned) [Example 89, 4-{[(2R,5R)-1-{2-[6-(1,1-Difluorobutyl)-3,3-dimethyl-1H,2H,3H-pyrrolo[3,2-c]pyridin-1-yl]-2-oxoethyl}-5-methylpiperazin-2-yl]methyl}-(R or S)-6-ethylmorpholin-3-one dihydrochloride], the EC50 under setting [3] came to 6.5 nM.

For `C[C@@H]1CN(CC(=O)N2CC(C)(C)c3ncc(Cc4ccc(F)cc4)cc32)[C@@H](CN2CCOCCC2=O)CN1` [Example 2, 4-{[(2R,5R)-1-(2-{6-[(4-Fluorophenyl)methyl]-3,3-dimethyl-1H,2H,3H-pyrrolo[3,2-b]pyridin-1-yl}-2-oxoethyl)-5-methylpiperazin-2-yl]methyl}-1,4-oxazepan-5-one hydrochloride], the EC50 under setting [1] came to 6.5 nM and the EC50 under setting [2] was less than 1000 nM.

As for `C[C@@H]1CN(CC(=O)N2CC(C)(C)c3ncc(Cc4ccc(F)cc4)cc32)[C@@H](CN2C(=O)[C@@H]3CC[C@H]2C3)CN1` [Example 8, (1S,4R)-2-{[(2R,5R)-1-(2-{6-[(4-Fluorophenyl)methyl]-3,3-dimethyl-1H,2H,3H-pyrrolo[3,2-b]pyridin-1-yl}-2-oxoethyl)-5-methylpiperazin-2-yl]methyl}-2-azabicyclo[2.2.1]heptan-3-one dihydrochloride], the EC50 reads like this: under setting [1], 7.1 nM; under setting [2], less than 1000 nM.

Turning to `C[C@@H]1CN(CC(=O)N2CC(C)(C)c3ncc(Cc4ccc(F)cc4)cc32)[C@@H](CN2C[C@@H](C)OC2=O)CN1` [Example 9, (5R)-3-{[(2R,5R)-1-(2-{6-[(4-Fluorophenyl)methyl]-3,3-dimethyl-1H,2H,3H-pyrrolo[3,2-b]pyridin-1-yl}-2-oxoethyl)-5-methylpiperazin-2-yl]methyl}-5-methyl-1,3-oxazolidin-2-one], the EC50 under setting [1] came to 5.9 nM and the EC50 under setting [2] is less than 1000 nM.

For the compound `C[C@@H]1CN(CC(=O)N2CC(C)(C)c3ncc(Cc4ccc(F)cc4)cc32)[C@@H](CN2CCC(F)(F)C2=O)CN1` [Example 11, 3,3-Difluoro-1-{[(2R,5R)-1-(2-{6-[(4-fluorophenyl)methyl]-3,3-dimethyl-1H,2H,3H-pyrrolo[3,2-b]pyridin-1-yl}-2-oxoethyl)-5-methylpiperazin-2-yl]methyl}pyrrolidin-2-one dihydrochloride], the EC50 under setting [4] came to 4.3 nM.

Consider `C[C@@H]1CN(CC(=O)N2CC(C)(C)c3ncc(Cc4ccc(F)cc4)cc32)[C@@H](CN2Cc3ncccc3C2=O)CN1` [Example 15, 6-{[(2R,5R)-1-(2-{6-[(4-Fluorophenyl)methyl]-3,3-dimethyl-1H,2H,3H-pyrrolo[3,2-b]pyridin-1-yl}-2-oxoethyl)-5-methylpiperazin-2-yl]methyl}-5H,6H,7H-pyrrolo[3,4-b]pyridin-5-onne dihydrochloride], for which the EC50 under setting [4] amounted to 0.63 nM.

Turning to `C[C@@H]1CC(=O)N(C[C@H]2CN[C@H](C)CN2CC(=O)N2CC(C)(C)c3ncc(Cc4ccc(F)cc4)cc32)C1` [Example 16, (4R)-1-{[(2R,5R)-1-(2-{6-[(4-Fluorophenyl)methyl]-3,3-dimethyl-1H,2H,3H-pyrrolo[3,2-b]pyridin-1-yl}-2-oxoethyl)-5-methylpiperazin-2-yl]methyl}-4-methylpyrrolidin-2-one dihydrochloride], the EC50 under setting [1] came out at 6 nM.

As for `C[C@H]1CC(=O)N(C[C@H]2CN[C@H](C)CN2CC(=O)N2CC(C)(C)c3ncc(Cc4ccc(F)cc4)cc32)C1` [Example 17, (4S)-1-{[(2R,5R)-1-(2-{6-[(4-Fluorophenyl)methyl]-3,3-dimethyl-1H,2H,3H-pyrrolo[3,2-b]pyridin-1-yl}-2-oxoethyl)-5-methylpiperazin-2-yl]methyl}-4-methylpyrrolidin-2-one dihydrochloride], the EC50 by setting is: under setting [1], 3.1 nM; under setting [2], less than 1000 nM.

For `C[C@@H]1CN(CC(=O)N2CC(C)(C)c3ncc(Cc4ccc(F)cc4)cc32)[C@@H](CN2CC(=O)NCC2=O)CN1` [Example 22, 1-{[(2R,5R)-1-(2-{6-[(4-Fluorophenyl)methyl]-3,3-dimethyl-1H,2H,3H-pyrrolo[3,2-b]pyridin-1-yl}-2-oxoethyl)-5-methylpiperazin-2-yl]methyl}piperazine-2,5-dione], the EC50 under setting [1] stood at 9.2 nM and the EC50 under setting [2] was less than 1000 nM.

Consider `C[C@@H]1CN(CC(=O)N2CC(C)(C)c3ncc(Cc4ccc(F)cc4)cc32)[C@@H](CN2C(=O)CO[C@@H](C)[C@H]2C)CN1` [Example 25, (5R,6S)-4-{[(2R,5R)-1-(2-{6-[(4-Fluorophenyl)methyl]-3,3-dimethyl-1H,2H,3H-pyrrolo[3,2-b]pyridin-1-yl}-2-oxoethyl)-5-methylpiperazin-2-yl]methyl}-5,6-dimethylmorpholin-3-one, dihydrochloride], for which the EC50 reads like this: under setting [1], 1.9 nM; under setting [2], less than 1000 nM.

As for `C[C@@H]1CN(CC(=O)N2CC(C)(C)c3ncc(Cc4ccc(F)cc4)cc32)[C@@H](CN2C[C@H](C)N(C)CC2=O)CN1` [Example 43, (5S)-1-{[(2R,5R)-1-(2-{6-[(4-Fluorophenyl)methyl]-3,3-dimethyl-1H,2H,3H-pyrrolo[3,2-b]pyridin-1-yl}-2-oxoethyl)-5-methylpiperazin-2-yl]methyl}-4,5-dimethylpiperazin-2-one dihydrochloride], the EC50 was 12 nM under setting [1] and less than 1000 nM under setting [2].

As to `C[C@H]1CC(=O)N(C[C@H]2CN[C@H](C)CN2CC(=O)N2CC(C)(C)c3nnc(Cc4ccc(F)cc4F)cc32)C1` [Example 46, (4S)-1-{[(2R,5R)-1-(2-{3-[(2,4-Difluorophenyl)methyl]-7,7-dimethyl-5H,6H,7H-pyrrolo[3,2-c]pyridazin-5-yl}-2-oxoethyl)-5-methylpiperazin-2-yl]methyl}-4-methylpyrrolidin-2-one dihydrochloride], the EC50 runs as follows: under setting [1], 2.3 nM; under setting [2], less than 1000 nM.

`C[C@H]1CC(=O)N(C[C@H]2CN[C@H](C)CN2CC(=O)N2CC(C)(C)c3nnc(Cc4ccc(F)cc4)cc32)C1` [Example 47, (4S)-1-{[(2R,5R)-1-(2-{3-[(4-Fluorophenyl)methyl]-7,7-dimethyl-5H,6H,7H-pyrrolo[3,2-c]pyridazin-5-yl}-2-oxoethyl)-5-methylpiperazin-2-yl]methyl}-4-methylpyrrolidin-2-one dihydrochloride]: the EC50 is, setting by setting: under setting [1], 2.9 nM; under setting [2], less than 1000 nM.

For the compound `C[C@@H]1CN(CC(=O)N2CC(C)(C)c3nnc(Cc4ccc(F)cc4F)cc32)[C@@H](CN2C[C@H](C)OCC2=O)CN1` [Example 52, (6S)-4-{[(2R,5R)-1-(2-{3-[(2,4-Difluorophenyl)methyl]-7,7-dimethyl-5H,6H,7H-pyrrolo[3,2-c]pyridazin-5-yl}-2-oxoethyl)-5-methylpiperazin-2-yl]methyl}-6-methylmorpholin-3-one], the EC50 under setting [2] is less than 1000 nM.

For the compound `C[C@@H]1CN(CC(=O)N2CC(C)(C)c3nnc(Cc4ccc(F)cc4)cc32)[C@@H](CN2C[C@H](C)OCC2=O)CN1` [Example 53, (6S)-4-{[(2R,5R)-1-(2-{3-[(4-Fluorophenyl)methyl]-7,7-dimethyl-5H,6H,7H-pyrrolo[3,2-c]pyridazin-5-yl}-2-oxoethyl)-5-methylpiperazin-2-yl]methyl}-6-methylmorpholin-3-one], under setting [2], the EC50 is less than 1000 nM.
